Reference: patent US20130029970A1 (priority 2009, published 2013)
pEC50, pIC50: −log10 of the molar value. Where two headings read alike, the source gives them in different places.

Tests used:
human CB2 (hCB2) = molecular target: T1, human CB2 (hCB2) (Homo sapiens, UniProt P34972); assay: 35S GTPγS binding assay, hCB2 agonist; assay type: biochemical
T1 construct: (cDNA clone) CNR0200000
Experimental: cDNA expression clones for human CB1 (hCB1, Genbank Accession No. AY225225) and human CB2 (hCB2, Genbank Accession No. AY242132) expressed in vector pcDNA3.1+ were purchased from UMR cDNA Resource Center, Rolla, Mo. (Clone ID CNR01L000 for hCB1; CNR0200000 for hCB2).
(§1) Membranes were isolated from transfected cells as follows. Monolayers of cultured cells were washed twice with phosphate-buffered saline (PBS). […] Homogenates were centrifuged 10 minutes at 1000×g at 4° C. The supernatant was collected and was centrifuged for 1 hour at 40,000×g. The supernatant was then decanted and the resulting pellet was re-suspended in 20 mM HEPES, pH 7.4, 5 mM MgCl2, 1 mM EDTA, 10% sucrose with complete cocktail protease inhibitors. Protein concentration of membrane suspensions were measured by Bradford Protein Assay using bovine serum albumin as the standard (BioRad catalog #500-0006). Protein concentrations of membrane suspensions were adjusted with the final buffer in the range of 5 to 10 mg/mL and were stored at −80° C. until further use.
(§2) Functional assays which monitor G-protein coupled receptor or downstream cellular responses can be used to characterize potential CB1 receptor and/or CB2 receptor agonist or antagonist activities. Direct activation (or inhibition of activation) can be monitored using a GTPγS assay (membrane-based assay) or cAMP assay (whole cell-based assay).
^35S GTPγS binding assays were performed by incubating recombinant cell membranes prepared above (5 μg) in the presence of scintillation proximity assay beads (SPA beads, Catalog #RPNQ0252 GE Healthcare, Buckinghamshire, England) in GTPγS binding buffer [50 mM HEPES (pH 7.4), 100 mM NaCl, 5 mM MgCl2, 0.001% saponin (Sigma catalog #S4521)] supplemented with 20 uM GDP (Sigma catalog #G7127) in the presence or absence of test compound. The reaction was carried out in 96-well microplates with 0.1 nM [^35S]GTPγS (specific activity=1250 Ci/mmol; Perkin Elmer catalog #NEG030X250UC) in a final volume of 100 uL. After a 90 min room temperature incubation, the reaction was analyzed using a scintillation counter (Perkin Elmer Microbeta instrument). Binding data were analyzed using GraphPad Prism.

human CB1 receptors = molecular target: T2, human CB1 receptors (Homo sapiens, UniProt P21554); assay: cAMP assay in HEK-293 cells, hCB1 agonist; assay type: cell-based; settings: inhibition of forskolin-stimulated cAMP, HEK-293 cells
T2 construct: (cDNA clone) CNR01L000
T2 sequence (P21554 whole entry): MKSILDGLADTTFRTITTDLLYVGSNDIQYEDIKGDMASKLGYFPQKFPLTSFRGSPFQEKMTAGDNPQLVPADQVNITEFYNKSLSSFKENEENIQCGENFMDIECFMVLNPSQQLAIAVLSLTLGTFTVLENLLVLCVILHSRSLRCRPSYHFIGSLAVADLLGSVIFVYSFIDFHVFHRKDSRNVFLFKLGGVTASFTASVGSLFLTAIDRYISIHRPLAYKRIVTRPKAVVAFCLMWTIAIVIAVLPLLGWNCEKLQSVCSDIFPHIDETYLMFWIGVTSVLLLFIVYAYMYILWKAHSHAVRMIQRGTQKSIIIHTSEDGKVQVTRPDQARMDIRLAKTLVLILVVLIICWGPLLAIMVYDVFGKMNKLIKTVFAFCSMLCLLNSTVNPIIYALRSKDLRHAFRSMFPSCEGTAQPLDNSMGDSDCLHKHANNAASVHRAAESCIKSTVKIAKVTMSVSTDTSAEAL
Source text: (§3) Stable, HEK-293-derived cell lines that recombinantly express hCBI or hCB2 were established. In brief, the clone hCB1 (CNR IL) or hCB2 (CNR2) was transfected into human embryonic kidney cells (HEK-293) using Lipofectamine 2000 (Gibco, Cat#11668-019) according to the manufacturer's protocol. Transfected clones were isolated by single colony purification and clones were screened for receptor expression using a whole cell, ^3H—CP 55,940 radioligand binding assay. HEK-293 stable cells were maintained in Dulbecco's modified Eagles medium (DMEM) containing 10% fetal bovine serum, 2 mM L-glutamine and 0.5 mg/mL G-418.
as §2
(§4) cAMP assays were performed in HEK-293 cells stably expressing human CB1 or CB2 receptors. For cannabinoid receptor functional assays measuring agonist effects on cellular cAMP levels, monolayers of cultured cells were harvested with enzyme-free PBS-based cell dissociation buffer (Gibco, Cat#13151-04). Cells suspensions were centrifuged and the cells were washed once with PBS, were centrifuged again, and the cells were re-suspended in HBSS (Hank's Balanced Salt Solution, Cellgro, Cat #21-022-CV) solution containing 10 mM HEPES and 0.1% fatty acid free BSA (Sigma, Cat #A0281). Cell suspensions were prepared at 1,500,000 cells per ml. Stock solutions of test substances (10 mM) in DMSO were diluted to 1 mM using 30% DMSO as diluent. Test substances of solutions (1 mM) were further diluted down to 3× of final assay concentrations in the above HBSS buffer containing 0.1% BSA in the presence of 90 uM forskolin (Sigma Cat#F6886). To perform the assay, 20 uL of cell suspension (1,500,000 cells/mL) were added to each well in 96 well plate and treated with 10 uL test substance solution diluted as described above. Cells and compounds were incubated at 37° C. for 30 minutes. Cells were lysed and cAMP concentration was measured using DiscoveRx −XS+ cAMP assay kit (DiscoveRx Corporation Ltd., Fremont, Calif., USA, Cat #90-0075-03), following the manufacturer's protocol. GraphPad Prism software was used to calculate EC50 values using sigmoidal dose response curve fitting. The maximal amount of cAMP produced by forskolin was defined as 100%. CB1 or CB2 agonists reduced forskolin-stimulated cAMP signaling. The EC50 value of an agonist compound was defined as the concentration at which 50% of the forskolin-stimulated cAMP synthesis was inhibited.

[1] = molecular target: T3, recombinant human cannabinoid receptor CB2 (Homo sapiens, UniProt P34972); assay: Cannabinoid receptor radioligand binding assay, [3H]-CP 55,940 displacement, hCB2
T3 construct: (cDNA clone) CNR0200000
T3 sequence (P34972 whole entry): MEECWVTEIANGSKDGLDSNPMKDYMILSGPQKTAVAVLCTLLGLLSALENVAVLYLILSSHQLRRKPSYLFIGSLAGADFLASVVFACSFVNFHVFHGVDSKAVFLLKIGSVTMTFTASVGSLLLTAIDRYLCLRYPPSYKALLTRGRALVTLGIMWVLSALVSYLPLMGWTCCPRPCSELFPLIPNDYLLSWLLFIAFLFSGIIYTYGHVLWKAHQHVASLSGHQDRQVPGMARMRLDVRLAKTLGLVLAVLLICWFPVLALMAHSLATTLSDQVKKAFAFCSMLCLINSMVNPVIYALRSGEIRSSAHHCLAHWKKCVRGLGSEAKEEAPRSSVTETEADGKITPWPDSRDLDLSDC
Experimental: as §1
A rapid filtration technique using Millipore FB filter plates (Catalog #MADVNOB) and filtration apparatus (Millipore system Catalog MAVM0960R) with vacuum aspiration was used to harvest and rinse labeled membranes (8 times with 0.2 mL of chilled binding buffer). […] Binding data were analyzed using GraphPad Prism (GraphPad Software, Inc. San Diego, Calif.).

[2] = molecular target: T4, recombinant human cannabinoid receptor CB1 (Homo sapiens, UniProt P21554); assay: Cannabinoid receptor radioligand binding assay, [3H]-CP 55,940 displacement, hCB1
T4 construct: (cDNA clone) CNR01L000
T4 sequence (P21554 whole entry): as the sequence (P21554 whole entry) above
Source text: as §3
Membranes were isolated from transfected cells as follows. Monolayers of cultured cells were washed twice with phosphate-buffered saline (PBS). Cells were scraped into 20 mM HEPES, pH 7.4, 10 mM EDTA containing complete cocktail protease inhibitors (Roche, Catalog #11 697 498 001) and were homogenized by an electric-powered mechanical probe homogenizer (Omni GLH; probe G7-195S) for 40 seconds at 7000 rpm. Homogenates were centrifuged 10 minutes at 1000×g at 4° C. The supernatant was collected and was centrifuged for 1 hour at 40,000×g. The supernatant was then decanted and the resulting pellet was re-suspended in 20 mM HEPES, pH 7.4, 5 mM MgCl2, 1 mM EDTA, 10% sucrose with complete cocktail protease inhibitors. Protein concentration of membrane suspensions were measured by Bradford Protein Assay using bovine serum albumin as the standard (BioRad catalog #500-0006). Protein concentrations of membrane suspensions were adjusted with the final buffer in the range of 5 to 10 mg/mL and were stored at −80° C. until further use.
Radioligand binding assays were performed by incubating membranes (2-10 μg protein) prepared from HEK-293 cells expressing recombinant human cannabinoid receptors, CB1 or CB2, at room temperature with 0.5 nM cannabinoid receptor agonist, [^3H]-CP 55,940 (Perkin Elmer, catalog #NET1051) in 0.2 mL of binding buffer (50 mM Tris-HCl, pH 7.5, 5 mM MgCl2, 2.5 mM EDTA) and 0.1% fatty acid free bovine serum albumin (Sigma Cat. #A0821) for 90 minutes. A rapid filtration technique using Millipore FB filter plates (Catalog #MADVNOB) and filtration apparatus (Millipore system Catalog MAVM0960R) with vacuum aspiration was used to harvest and rinse labeled membranes (8 times with 0.2 mL of chilled binding buffer). The radioactivity bound to the filters was counted with 0.05 mL of liquid scintillant (UltraGold MV, PerkinElmer catalog #6013159) in a scintillation counter (Perkin Elmer Microbeta instrument). Nonspecific binding was determined in the presence of unlabeled 1 μM CP 55,940 (Sigma Aldrich, catalog #C1112). Binding data were analyzed using GraphPad Prism (GraphPad Software, Inc. San Diego, Calif.).

human CB2 receptors = molecular target: T5, human CB2 receptors (Homo sapiens, UniProt P34972); assay: cAMP assay in HEK-293 cells, hCB2 agonist; assay type: cell-based; settings: for hCB2 EC50 (cAMP ag, nM): inhibition of forskolin-stimulated cAMP, HEK-293 cells
T5 construct: (cDNA clone) CNR0200000
T5 sequence (P34972 whole entry): as the sequence (P34972 whole entry) above
Experimental: as §2
as §4, with “For cannabinoid receptor functional assays measuring agonist effects on cellular cAMP levels, monolayers of cultured cells were harvested with enzyme-free PBS-based cell dissociation buffer (Gibco, Cat#13151-04).” left out, “100%.” for “100%. CB1 or CB2 agonists reduced forskolin-stimulated cAMP signaling. The EC50 value of an agonist compound was defined as the concentration at which 50% of the forskolin-stimulated cAMP synthesis was inhibited.”

[3] = displacement of 0.5 nM [3H]-CP 55,940, read-out: hCB2 IC50 (CP displ)
[4] = displacement of 0.5 nM [3H]-CP 55,940, read-out: hCB1 IC50 (CP displ)

T1 sequence (P34972 whole entry): as above

| Compound | pEC50 (human CB2 (hCB2)) | hCB1 EC50 (cAMP ag, nM) (human CB1 receptors) | pIC50 [1] | pIC50 [2] | hCB2 EC50 (cAMP ag, nM) (human CB2 receptors) | pIC50 [1, 3] | pIC50 [2, 4] | pEC50 (human CB2 receptors) |
| --- | --- | --- | --- | --- | --- | --- | --- | --- |
| Cc1cc2cc(C(=O)c3cccc(Cl)c3Cl)sc2n1C [Compound 20, (2,3-Dichlorophenyl)(5,6-dimethyl-6H-thieno[2,3-b]pyrrol-2-yl)methanone] | 6.00 to 7.00 | NS (NS means “Not Significant,” which means less than 30% agonist activity when compared to the positive control.) | 5.00 to 6.00 | < 5.00 | – | – | – | – |
| COc1ccc(C(=O)c2cc3cc(C)n(CCn4ccnc4)c3s2)cc1 [Compound 67, (6-(2-(1H-Imidazol-1-yl)ethyl)-5-methyl-6H-thieno[2,3-b]pyrrol-2-yl)(4-methoxyphenyl)methanone] | 6.00 to 7.00 | NS (NS means “Not Significant,” which means less than 30% agonist activity when compared to the positive control.) | 5.00 to 6.00 | < 5.00 | – | – | – | – |
| COc1ccc(C(=O)c2cc3cc(C)n(CCCN(C)S(C)(=O)=O)c3s2)cc1 [Compound 69, N-(3-(2-(4-Methoxybenzoyl)-5-methyl-6H-thieno[2,3-b]pyrrol-6-yl)propyl)-N-methylmethanesulfonamide] | 6.00 to 7.00 | NS (NS means “Not Significant,” which means less than 30% agonist activity when compared to the positive control.) | 5.00 to 6.00 | < 5.00 | – | – | – | – |
| COc1ccc(C(=O)c2cc3cc(C)n(CCCNS(=O)(=O)c4ccccc4)c3s2)cc1 [Compound 81, N-(3-(2-(4-Methoxybenzoyl)-5-methyl-6H-thieno[2,3-b]pyrrol-6-yl)propyl)benzenesulfonamide] | – | NS (NS means “Not Significant,” which means less than 30% agonist activity when compared to the positive control.) | – | – | NS (NS means “Not Significant,” which means less than 30% agonist activity when compared to the positive control.) | 5.00 to 6.00 | < 5.00 | – |
| COc1ccc(C(=O)c2cc3cc(C)n(CCN4CCN(S(C)(=O)=O)CC4)c3s2)cn1 [Compound 143, (6-methoxypyridin-3-yl)(5-methyl-6-(2-(4-(methylsulfonyl)piperazin-1-yl)ethyl)-6H-thieno[2,3-b]pyrrol-2-yl)methanone] | – | NS (NS means “Not Significant,” which means less than 30% agonist activity when compared to the positive control.) | – | – | NS (NS means “Not Significant,” which means less than 30% agonist activity when compared to the positive control.) | < 5.00 | < 5.00 | – |
| COc1ccc(C(=O)c2cc3cc(C)n(CCN4CCCC4C(=O)O)c3s2)cn1 (stereo not shown) [Compound 146, 1-(2-(2-(6-methoxynicotinoyl)-5-methyl-6H-thieno[2,3-b]pyrrol-6-yl)ethyl)pyrrolidine-2-carboxylic acid] | – | NS (NS means “Not Significant,” which means less than 30% agonist activity when compared to the positive control.) | 6.00 to 7.00 | < 5.00 | – | – | – | 6.00 to 7.00 |
| COc1ccc(C(=O)c2cc3cc(C)n(CCNCC4CCOCC4)c3s2)cn1 [Compound 149, (6-methoxypyridin-3-yl)(5-methyl-6-(2-((tetrahydro-2H-pyran-4-yl)methylamino)ethyl)-6H-thieno[2,3-b]pyrrol-2-yl)methanone] | – | NS (NS means “Not Significant,” which means less than 30% agonist activity when compared to the positive control.) | < 5.00 | < 5.00 | – | – | – | 6.00 to 7.00 |
